Columns and labels:
[1] = test system: rno expression in HL-60 cells; assay: RT-PCR analysis of rno expression in HL-60 cells treated with differentiating agents; assay type: cell-based, human; settings: for rno expression (RT-PCR), sGC/cGMP pathway agents alone: ODQ 10 μM, 8-Br-cGMP 3 mM; for rno expression (RT-PCR): DETA-NO 125 μM, DMSO 1.2% (v/v), VD3 100 nM; for time course of rno induction (RT-PCR): 125 μM DETA-NO or 1.2% DMSO added once, 24, 48, 72 hr
Procedure: FIG. 4 is a […] showing the effect of differentiating agents on rno expression in HL-60 cells. For the upper panel, HL-60 cells were treated with DETA-NO, DMSO, or VD3 for 24 hours before analysis of rno expression by RT-PCR. Lane 1, no treatment control; Lane 2, DETA-NO; Lane 3, DMSO; Lane 4, VD3; Lane 5, water blank (no template); Lane 6, reverse transcriptase omitted from the reaction mixture; Lane 7, RT-PCR performed using RNA isolated from normal PMN (positive control). The positions of the size marker (MW) are indicated on the left. The positions of rno-1 and rno-3 are shown on the right. Referring to the lower panel, RT-PCR analysis of actin expression was used to control for the quality and integrity of the cDNA that was prepared from the various samples. Lane 1, no treatment control cells; Lane 2, cells treated with DETA-NO, Lane 3, cells treated with DMSO; Lane 4, cells treated with VD3; Lane 5, water blank (no template), Lane 6, RT-PCR performed using RNA isolated from normal PMN.
FIG. 5 illustrates the time course of rno induction in HL-60 cells. For the results of the upper panel, HL-60 cells were treated with 125 μM DETA-NO or 1.2% DMSO, and expression of rno was analyzed by RT-PCR at three different time points. MW, 100 bp DNA ladder; Lane 1, no-treatment control cells; Lane 2, cells treated with DETA-NO for 24 hr; Lane 3, cells treated with DETA-NO for 48 hr; Lane 4; cells treated with DETA-NO for 72 hr; Lane 5, cells treated with DMSO for 24 hr; Lane 6, cells treated with DMSO for 48 hr; Lane 7, cells treated with DMSO 72 hr; Lane 8, water blank (no template). The position of rno-1 is indicated on the left. For the results of the lower panel, RT-PCR analysis of actin expression was used to control for the quality and integrity of the cDNA that was prepared from the various samples. MW, 100 bp DNA ladder; Lane 1, no-treatment control cells; Lane 2, cells treated with DETA-NO for 24 hr; Lane 3, cells treated with DETA-NO for 48 hr; Lane 4; cells treated with DETA-NO for 72 hr; Lane 5, cells treated with DMO for 24 hr; Lane 6, cells treated with DMSO for 48 hr; Lane 7, cells treated with DMSO 72 hr. The position of actin is indicated on the left. DETA-NO upregulates rno within 24 hours and expression returns to baseline by 48 hours. DMSO also upregulates rno within 24 hours but expression persists through the entire 72 hr of exposure.
FIG. 6 illustrates the effect of cGMP on rno expression. In the upper pannel, HL-60 cells were treated with DETA-NO, 8Br-cGMP, ODQ, or ODQ and DETA-NO for 24 hours. Subsequently rno expression was analyzed by using RT-PCR. Lane 1, molecular mass standards (100 bp ladder); Lane 2, no-treatment control cells; Lane 3, DETA-NO; Lane 4, 8-Br-cGMP; Lane 5, ODQ; Lane 6, ODQ and DETA-NO; Lane 7, water blank (no cDNA template); Lane 8, reverse transcriptase omitted from one of the reaction mixtures. The position of rno-1 is indicated on the left. In the lower panel, RT-PCR analysis of actin expression was used to control for the quality and integrity of the cDNA that was prepared from the various samples. Lane 1,100 bp DNA ladder; Lane 2, no-treatment control; Lane 3, cells treated with DETA-NO; Lane 4, cells treated with 8Br-cGMP; Lane 5, cells treated with ODQ; Lane 6, cells treated with ODQ and DETA-NO. The position of actin is indicated on the left. Upregulation of rno by DETA-NO is cGMP-independent.
Referring to FIG. 4, RT-PCR was used to compare the effects of three differentiating agents on expression of rno. NO induces HL-60 cells to differentiate along the monocytic lineage. Magrinat, G et al. (1992) Blood, 80:1980-1986. DMSO is a granulocytic differentiation agent, while VD3 induces monocytic differentiation. Trayner, ID et al. (1998) Leuk Res., 22:537-547.
Referring to FIG. 4, both NO and DMSO induce expression of rno. To determine if the time-course of induction is similar, HL-60 cells were incubated with either DETA-NO or DMSO for 72 hr. […]

[2] = Half-life of NO release of DETA-NO; assay type: physicochemical; settings: by the time the 48 hr sample was harvested, from half-life of 20 hr
Procedure: HL-60 cells were from ATCC (Rockville, Md.) and were cultured at 37° C. in a 5% CO2 humidified atmosphere at a density of 150,000 cells/ml. The culture medium consisted of RPMI-1640 supplemented with 10% fetal bovine serum and 1% Penicillin (10,000 U/mL)/Streptomycin (10 mg/mL). (Z)-1-[2-(2-Aminoethyl)-N-(2-ammonioethyl)amino]diazen-1-um-1,2-diolate] (DETA-NO) was used as a source of NO. DETA-NO belongs to the diazenium diolate class of NO donors and releases 2 molecules of NO per carrier moiety with a half-life of NO release of 20 hours. Keefer, L K et al. (1996) Methods in Enzymology.268:281-293. The effects of the following other differentiating agents on expression of rno were also investigated: dimethyl sulfoxide (DMSO); all-trans retinoic acid (ATRA); and vitamin D3 (VD3). DETA-NO, DMSO, ATRA, or VD3 were added once to HL-60 cells at the time of culture initiation at concentrations of 125 μM, 1.2% (v/v), 1 μM, and 100 nM, respectively. For studies of the role of the soluble guanylate cyclase (sGC)/cGMP signal transduction pathway in NO upregulation of rno, the sGC inhibitor 1H-[1,2,4]oxadiazolo[4,3-a]quinoxalin-1 -one (ODQ) and the cell permeable cGMP analogue 8-Br-cGMP at concentrations of 10 μM were used and 3 mM, respectively. Brunner, F et al. (1996) J Pharmacol Exp Ther. 277:48-53; Boss, GR.(1989) Proc Natl Acad Sci USA. 86:7174-7178. […]

[3] = test system: rno expression in HL-60 cells; assay: Northern analysis of rno expression in DETA-NO treated HL-60 cells; assay type: cell-based, human; settings: DETA-NO 125 μM, 24 hr, DP-3A probe
Procedure: FIG. 1 is a northern blot showing the induction of rno expression by NO. HL-60 cells were treated for 24 hr with DETA-NO (125 μM). Total cellular RNA was isolated and northern analysis was performed by using radiolabelled rno DP-3A as a probe as shown in the upper panel. […] The positions of the bands representing 28S and 18S ribosomal RNA are indicated on the left. Lane 1, RNA from control, untreated cells; Lane 2, RNA from DETA-NO treated cells.
The following two sets of cells were used for analysis of the effects NO on gene expression: control HL-60 cells incubated in media for 24 hours and HL-60 cells treated with 125 μM DETA-NO (a NO generating compound) for the same time period. Poly (A^+) RNA was prepared from the two sets of cells, and this material was used as template for the synthesis of double stranded cDNA. Following digestion with BglII, a set of primer/adapters was ligated to aliquots of each sample, and this cDNA was amplified by PCR to generate representations from the control and treated populations. By using the technique of RDA modified for cDNA, gene expression between the control and DETA-NO treated cells was compared. Lisitsyn, N et al. (1993) Science.259:946-951; Hubank, M & Schatz, D G (1994) Nucl Acids Res. 22:5640-5648; Kanai, N et al. (1999) Am J Hematol., 61:221-231. In the present study, two sets of subtraction/hybridizations were performed in parallel. […]

Structure (SMILES) | rno expression (RT-PCR), sGC/cGMP pathway agents alone ([1]; 24 hours) | rno expression (RT-PCR) ([1]; 24 hours) | time course of rno induction (RT-PCR) [1] | other results
O=c1onc2cnc3ccccc3n12 [ODQ, 1H-[1,2,4]oxadiazolo[4,3-a]quinoxalin-1-one] | did not upregulate rno expression |  |  | effect of sGC inhibitor on induction of rno by DETA-NO (RT-PCR) ([1]; ODQ and DETA-NO in combination, 24 hours): did not prevent the induction of rno by DETA-NO
Nc1nc2c(nc(Br)n2[C@@H]2O[C@@H]3COP(=O)(O)O[C@H]3[C@H]2O)c(=O)[nH]1 [8-Br-9 cGMP] | did not induce rno expression |  |  | 
C=C1CC[C@H](O)C/C1=C/C=C1\CCC[C@]2(C)[C@@H]([C@H](C)CCCC(C)C)CC[C@@H]12 [VD3, vitamin D3] |  | not by VD3 |  | 
C[S+](C)[O-] [DMSO, dimethyl sulfoxide] |  | upregulated | induced expression of rno within 24 hr, however, expression persisted through the entire 72 hr observation period | 
CC1=C(/C=C/C(C)=C/C=C/C(C)=C/C(=O)O)C(C)(C)CCC1 [ATRA, all-trans retinoic acid] |  |  |  | rno expression (RT-PCR), data not shown ([1]; ATRA 1 μM, even after 72 hr of exposure): no effect on rno expression
NCCN(CCN)/[N+]([O-])=N/O [DETA-NO] |  | upregulated | evident at 24 hr and returned to baseline by 48 hr | decrease of functional activity of the reagent [2]: more than 75%; rno expression (northern blot) [3]: upregulates rno expression
